Values of other authors as cited in patent US11174289B1, “Artificial intelligence designed antimicrobial peptides” (International Business Machines Corporation, priority 2020, dated 2021).

Experiments:
[1] = no significant antimicrobial activity; strain not given
[2] = comparison value for the clinically used drug

Substance | MIC [1] | LD50 [2]
FPVTWPTKWWKG [PuroB] | > 200 µg/mL | 
polymyxin B |  | 20.5 mg/kg
